Legend:
[1] = test system: CD4 T cell (helper T cell); test: Selective cytotoxicity: proportion of CD4 T cells after treatment; assay type: cell-based, mice; conditions: proportion of the cells
Text: (§1) Germ-free test animals, mice BDF1 and B6C3F1, obtained from Genetic Resources Center, Korean Research Institute of Bioscience and Biotechnology in the Korean Institute of Science and Technology, were used for the assay of the immunosuppressive activity of prodigiosin. […] At such concentrations as show no cytotoxic effects, prodigiosin cannot suppress the immune response of B lymphocytes. […] This selective immunosuppression for T lymphocytes is not ascribed to the selective cytotoxicity for T lymphocytes. The same immunosuppression results as in the ex vivo experiments were obtained in in vivo experiments. When T lymphocyte activity was measured by use of a graft versus host reaction and a T cell-dependent antibody producing reaction, the prodigiosin suppressed the immune response, but exerted no toxicity on animals. Therefore, the immunosuppressive activity of the prodigiosin is thought to be attributed to the selective suppression for T lymphocyte activity.
(§2) Whether the selective immunosuppression of prodigiosin for T cells is attributed to the selective cytotoxicity for T cells or not was assayed by measuring the proportion of the cells. On the third day after treatment of the immune cells with prodigiosin, the number of the cells was counted. Because T lymphocytes consist of CD4 T cell (helper T cell) and CD8 T cell (cytotoxic T cell), the proportion of T and B lymphocytes was calculated in this Example.

[2] = test system: Immune cells separated from the spleens; test: Viability of spleen immune cells cultured in vitro (cytotoxicity); assay type: cell-based, mice; conditions: ex vivo experiments
Text: as §1
Immune cells were separated from the spleens of the germ-free animals and cultured in vitro. The cultures were treated with the prodigiosin at various amounts from 3 nM to 30,000 nM and the viability of the cells were measured from the first day to the third day after the treatment. Based on the initial viability of the immune cells, the viabilities of the test groups were calculated. […] So, subsequent experiments for immunoactivity were carried out at not more than 100 nM in order to exclude the cytotoxicity and to measure only the immunosuppressive effect of the prodigiosin.

B and T lymphocytes = test: Pokeweed mitogen-induced B and T lymphocyte proliferation (DNA synthesis); assay type: cell-based, mice; conditions: for Proliferation (%) B/T cells: three days
Text: as §1
(§3) Three standard substances which induce lymphocytes to proliferate were employed to measure the effect of the prodigiosin on proliferation of lymphocytes. 5 μg/ml of lipopolysaccharide were used to induce B lymphocyte to proliferate, 5 μg/ml of Concanavalin A for T lymphocyte and 5 μg/ml of Pokeweed mitogen for B and T lymphocytes, both. Prodigiosin was added, together with the proliferation-inducing substance. Three days after the addition, the proliferation effect was monitored by measuring the amount of DNA synthesized. In order to exclude the cytotoxicity of prodigiosin, it was used at a concentration of not more than 100 nM. In Table 2, the proliferation percentages mean the proliferated amounts of prodigiosin-treated lymphocytes relative to that of an non-treated group. As shown, the suppression percentage effected by prodigiosin in amounts of 30–100 nM reaches up to 96–98% for the T lymphocyte induced by concanavalin A while the proliferation of B lymphocyte induced by lipopolysaccharide and the proliferation of B/T lymphocytes induced by pokeweed mitogen are suppressed to the extent of 13–19% and 45–83%, respectively.

T lymphocyte = test: Concanavalin A-induced T lymphocyte proliferation (DNA synthesis); assay type: cell-based, mice; conditions: for Proliferation (%) T cell: three days
Text: as §1, §3

B lymphocytes = test: Selective cytotoxicity: proportion of B lymphocytes after treatment; assay type: cell-based, mice; conditions: for Proliferation (%) B cell: proportion of the cells
Text: as §1, §2

T lymphocytes [3] = test: Mixed lymphocyte reaction (T-cell response); assay type: cell-based, mice; conditions: for Immune Response (%) T cell: third day
Text: as §1
(§4) The influence of prodigiosin on the functions of lymphocytes was measured using three reaction systems. First, the ability of B lymphocyte to proliferate in response to lipopolysaccharide stimulus was assessed. For this, on the third day after stimulation with lipopolysaccharide, the antibody production of the B lymphocyte was measured. When B lymphocytes are stimulated with lipopolysaccharide, they can produce antibodies without the aid of T lymphocyte. Second, a mixed lymphocyte reaction was induced in order to assess the effect on T-cell response. The reaction needs no aids from the B lymphocyte. On the third day after two types of heteroimmune cells, which are different from each other in histocompatibility antigen, were mixed to stimulate the activity of T lymphocytes, the T-cell response-was assessed. Third, the T-cell dependent antibody producing reaction was utilized to assess the effect of prodigiosin on the simultaneous immune response of both of the B and T lymphocytes. This reaction requires the functions of B and T lymphocytes, simultaneously. On the fifth day after immunization of the lymphocytes with the red blood cells of sheep, their antibody production ability was assessed.
(§5) In Table 3, the values are relative to the immune response of the lymphocytes untreated with prodigiosin.

[4] = test system: CD8 T cell (cytotoxic T cell); test: Selective cytotoxicity: proportion of CD8 T cells after treatment; assay type: cell-based, mice; conditions: proportion of the cells
Text: as §1, §2

T lymphocytes [5] = test: Graft versus host reaction in vivo (lymphatic node weight); set-up: species or system BDF1 mice; conditions: for Wt. (mg) of Lymphatic node: sixth day after transplantation
Text: as §1
A graft versus host reaction was utilized for the in vivo assay of prodigiosin's immunosuppression. The graft versus host reaction enables an assessment of the immune response of T lymphocytes. On the sixth day after transplantation of the T lymphocytes of BDF1 mice different in histocompatibility antigen, the lymphatic nodes were measured for weight, thereby assessing the immune response of T lymphocyte to the grafted heteroantigens. The prodigiosin was peritoneally injected at a dose of 30–100 mg per kg of body weight for five days while cyclophosphamide, as a positive control, was peritoneally injected at a dose of 100 mg/kg for five days. The body weights of the injected mice were measured to compare the toxicity of prodigiosin with that of cyclophosphamide. […] As for the body weight, it was not changed in the mice injected with prodigiosin at an effective concentration.

CD4 T lymphocytes = test: Immunosuppressive activity on CD4 T lymphocytes; assay type: cell-based
B lymphocyte = test: Antibody production of B lymphocytes stimulated with lipopolysaccharide; assay type: cell-based, mice; conditions: for effect on antibody production / immune response of B lymphocytes (words): non-cytotoxic concentration range (3-100 nM)
Text: as §1, §4, §5

[6] = 3 nM, third day after treatment

CCCCCC1=C/C(=C/c2[nH]c(-c3ccc[nH]3)cc2OC)N=C1C [Prodigiosin, prodigiosin]
Proliferation (%) CD4 T cell [1, 6]: 31% | Proliferation (%) CD4 T cell ([1]; 10 nM, third day): 31% | Proliferation (%) CD4 T cell ([1]; 30 nM, third day): 31% | Proliferation (%) CD4 T cell ([1]; 100 nM, third day): 29% | concentration with no cytotoxic effects [2]: less than 100 nM | Proliferation (%) B/T cells (B and T lymphocytes; 3 nM, 5 μg/ml Pokeweed mitogen, relative to non-treated group): 100% | Proliferation (%) B/T cells (B and T lymphocytes; 10 nM, Pokeweed mitogen): 86% | Proliferation (%) B/T cells (B and T lymphocytes; 30 nM, Pokeweed mitogen): 55% | Proliferation (%) B/T cells (B and T lymphocytes; 100 nM, Pokeweed mitogen): 17% | suppression of proliferation of B/T lymphocytes induced by pokeweed mitogen (B and T lymphocytes; 30–100 nM): 45–83% | Proliferation (%) T cell (T lymphocyte; 3 nM, 5 μg/ml Concanavalin A, relative to non-treated group): 77% | Proliferation (%) T cell (T lymphocyte; 10 nM, Concanavalin A): 46% | Proliferation (%) T cell (T lymphocyte; 30 nM, Concanavalin A): 4% | Proliferation (%) T cell (T lymphocyte; 100 nM, Concanavalin A): 2% | suppression percentage, T lymphocyte induced by concanavalin A (T lymphocyte; 30–100 nM): 96–98% | effect on proliferation and activity of T lymphocytes (T lymphocyte; non-cytotoxic concentrations): potential suppressive effect | Proliferation (%) B cell (B lymphocytes; [6]): 47% | Proliferation (%) B cell (B lymphocytes; 10 nM, third day): 49% | Proliferation (%) B cell (B lymphocytes; 30 nM, third day): 50% | Proliferation (%) B cell (B lymphocytes; 100 nM, third day): 52% | selective cytotoxicity for B, CD4 T and CD8 T lymphocytes (B lymphocytes; B, CD4 T and CD8 T cell proportions, 3-100 nM, third day): no selective cytotoxicity | Immune Response (%) T cell (T lymphocytes [3]; 3 nM, mixed lymphocyte reaction, relative to untreated lymphocytes): 111% | Immune Response (%) T cell (T lymphocytes [3]; 10 nM): 110% | Immune Response (%) T cell (T lymphocytes [3]; 30 nM): 67% | Immune Response (%) T cell (T lymphocytes [3]; 100 nM): 30% | immune response in which T lymphocytes are involved (T lymphocytes [3]; Table 3 concentration range): significantly suppressed | Proliferation (%) CD8 T cell [4, 6]: 13% | Proliferation (%) CD8 T cell ([4]; 10 nM, third day): 13% | Proliferation (%) CD8 T cell ([4]; 30 nM, third day): 12% | Proliferation (%) CD8 T cell ([4]; 100 nM, third day): 10% | Wt. (mg) of Lymphatic node (T lymphocytes [5]; 10 mg/kg peritoneally for five days): 1.12 mg | Wt. (mg) of Lymphatic node (T lymphocytes [5]; 30 mg/kg peritoneally for five days): 0.98 mg | immune response of T lymphocytes in graft versus host reaction (T lymphocytes [5]; peritoneal injection for five days): potentially suppress | immunosuppressive activity on CD4 T lymphocytes (CD4 T lymphocytes): has an immunosuppressive activity | Immune Response (%) B cell (B lymphocyte; 3 nM, antibody production, third day after lipopolysaccharide, relative to untreated lymphocytes): 116% | Immune Response (%) B cell (B lymphocyte; 10 nM, third day): 108% | Immune Response (%) B cell (B lymphocyte; 30 nM, third day): 100% | Immune Response (%) B cell (B lymphocyte; 100 nM, third day): 97% | effect on antibody production / immune response of B lymphocytes (words) (B lymphocyte): no influence | effect on antibody production / immune response of B lymphocytes (words) (B lymphocyte; listed as prodigiosin): not at all
